Data taken from patent US7510825B2, “Kits and methods for detection of apoptotic cells” (NST NeuroSurvival Technologies Ltd, priority 2000, dated 2009).

Tested on: tubular epithelial cells of the septic kidney
Test: Focal uptake of DDC in the septic kidney (cecal ligature and perforation)
Type: in vivo, mice
Details: 24 h after cecal ligature and puncture
Description: A. Administration of DDC in-vivo: Injection of 200 μl of DDC intravenously. Following 1-2 hours, animal is sacrificed, and the desired organ is placed in a test tube or on a small plate, suitable for liquid nitrogen freezing. The plate is then covered with an aluminum foil, and transferred to liquid nitrogen. Following 5-30 minutes the specimen is being frozen to −80° C. and kept at −80° C. for at least 16 hr. B. Analysis of the Specimen: • a. Whole organ imaging Ex-vivo whole organ fluorescence imaging may be carried out on freshly excised specimen, that can be analyzed under a stereomicroscope (such as Leica MZ FL III, Leica Switzerland). DDC may be visualized using 360cx and >420cm nm filter set. Emitted fluorescence can be imaged using appropriate camera and software, such as a Leica DC 300F Distal camera and images can be processed and analyzed by Leica QWin Lite software. • b. Histological analysis, from the frozen organ or tissue, 4 μm cryosections are prepared on slides. Analysis of the tissue sections can be performed using a fluorescence microscope with a UV filter characterized by excitation at 360-370 nm (band pass) and emission at 420 nm (barrier filter) In case that staining of the examined tissue is desired, the following procedures can be applied: […]

Question: For `CN(C)c1cccc2c(S(=O)(=O)NC(CSSCC(NS(=O)(=O)c3cccc4c(N(C)C)cccc34)C(=O)O)C(=O)O)cccc12` (centres unmarked) [DDC], which “DDC staining versus TUNEL staining” value is on record?
Answer: detected early apoptotic cells where TUNEL staining is still negative

Question: What about the “identification of focal tubular cell injury” value (compared with H&E) of the same compound?
Answer: clearly identified by DDC staining
